The values below come from patent US6962933B1, “Method for inhibiting p38 MAP kinase or TNF-α production using a 1,3-thiazole” (Takeda Pharmaceutical Company Limited, priority 1999, dated 2005).

As a reminder, the melting point is the temperature of the solid-liquid transition. `CNc1nc(-c2ccc3c(c2)CCC3)c(-c2cccnc2)s1` [13-74] showed a melting point of 172 to 173 °C.
The value for `COc1ccc(-c2nc(N)sc2-c2ccncc2)cc1` [Reference Example 13-14, [4-(4-methoxyphenyl)-5-(4-pyridyl)-1,3-thiazol-2-yl]amine] was 282 to 284 °C; that for `Nc1nc(-c2ccccc2)c(-c2ccncc2)s1` [Reference Example 13-15, [4-phenyl-5-(4-pyridyl)-1,3-thiazol-2-yl]amine] was 248 to 250 °C; that for `CNc1nc(-c2ccccc2)c(-c2ccncc2)s1` [Reference Example 13-47, N-methyl [4-phenyl-5-(4-pyridyl)-1,3-thiazol-2-yl]amine] was 191 to 192 °C.
The value for `CNc1nc(-c2ccc(F)cc2)c(-c2ccncc2)s1` [Reference Example 13-69, N-methyl [4-(4-fluorophenyl)-5-(4-pyridyl)-1,3-thiazol-2-yl]amine] was 205 to 206 °C; that for `CNc1nc(-c2ccc(Br)cc2)c(-c2ccncc2)s1` [Reference Example 13-71, N-methyl [4-(4-bromophenyl)-5-(4-pyridyl)-1,3-thiazol-2-yl]amine] was 206 to 207 °C; that for `O=C(Cc1ccccc1)Nc1nc(-c2ccccc2)c(-c2ccncc2)s1` [Reference Example 23-29, 2-phenyl-N-[4-phenyl-5-(4-pyridyl)-1,3-thiazol-2-yl]acetamide] was 233 to 234 °C.
With `O=C(CCc1ccccc1)Nc1nc(-c2ccccc2)c(-c2ccncc2)s1` [Reference Example 23-30, 3-phenyl-N-[4-phenyl-5-(4-pyridyl)-1,3-thiazol-2-yl]propionamide], the melting point fell in the range of 214 to 216 °C.
To `CC(=O)Nc1nc(-c2cccc(Cl)c2)c(-c2ccncc2)s1` [Reference Example 23-49, N-[4-(3-chlorophenyl)-5-(4-pyridyl)-1,3-thiazol-2-yl]acetamide] belongs 290 to 293 °C; to `CCC(=O)Nc1nc(-c2cccc(Cl)c2)c(-c2ccncc2)s1` [Reference Example 23-50, N-[4-(3-chlorophenyl)-5-(4-pyridyl)-1,3-thiazol-2-yl]propionamide], 289 to 290 °C; to `CC(=O)Nc1nc(-c2cccc(C)c2)c(-c2ccncc2)s1` [Reference Example 23-51, N-[4-(3-methylphenyl)-5-(4-pyridyl)-1,3-thiazol-2-yl]acetamide], 287 to 289 °C.
Consider `CCC(=O)Nc1nc(-c2cccc(C)c2)c(-c2ccncc2)s1` [Reference Example 23-52, N-[4-(3-methylphenyl)-5-(4-pyridyl)-1,3-thiazol-2-yl]propionamide], for which the melting point lay in the range of 258 to 260 °C.
To `Nc1nc(-c2cccc(Cl)c2)c(-c2ccncc2)s1` [Reference Example 23-59, [4-(3-chlorophenyl)-5-(4-pyridyl)-1,3-thiazol-2-yl]amine] belongs 256 to 258 °C; to `Nc1nc(-c2ccc(Cl)cc2)c(-c2ccncc2)s1` [Reference Example 23-61, [4-(4-chlorophenyl)-5-(4-pyridyl)-1,3-thiazol-2-yl]amine], more than 300 °C; to `Cc1ccc(-c2nc(N)sc2-c2ccncc2)cc1` [Reference Example 23-62, [4-(4-methylphenyl)-5-(4-pyridyl)-1,3-thiazol-2-yl]amine], 296 to 298 °C.
To `CC(=O)Nc1nc(-c2ccccc2)c(-c2ccncc2)s1` [Reference Example 23-71, N-[4-phenyl-5-(4-pyridyl)-1,3-thiazol-2-yl]acetamide] belongs 294 to 297 °C.
The value for `COc1ccc(-c2nc(Nc3ccccc3)sc2-c2ccncc2)cc1` [Reference Example 23-80, N-phenyl-[4-(4-methoxyphenyl)-5-(4-pyridyl)-1,3-thiazol-2-yl]amine] was 287 to 289 °C.
The compound `COc1ccc(-c2nc(NC(=O)c3cccnc3)sc2-c2ccncc2)cc1` [Reference Example 23-101, N-[4-(4-methoxyphenyl)-5-(4-pyridyl)-1,3-thiazol-2-yl]nicotinamide] showed a melting point of 278 to 281 °C.
The value for `COc1ccc(-c2nc(NC(=O)c3ccncc3)sc2-c2ccncc2)cc1` [Reference Example 23-102, N-[4-(4-methoxyphenyl)-5-(4-pyridyl)-1,3-thiazol-2-yl]isonicotinamide] was 295 to 297 °C; that for `Cc1ccc(-c2nc(N)sc2-c2ccncc2)cc1C` [Reference Example 23-125, [4-(3,4-dimethylphenyl)-5-(4-pyridyl)-1,3-thiazol-2-yl]amine] was 248 to 250 °C; that for `CCNC(=O)Nc1nc(-c2ccc(OC)cc2)c(-c2ccncc2)s1` [Reference Example 23-156, N-ethyl-N′-[4-(4-methoxyphenyl)-5-(4-pyridyl)-1,3-thiazol-2-yl]urea] was 224 to 226 °C.
The value for `Cc1cc(C)cc(-c2nc(NC(=O)c3ccncc3)sc2-c2ccncc2)c1` [Reference Example 23-200, N-[4-(3,5-dimethylphenyl)-5-(4-pyridyl)-1,3-thiazol-2-yl]isonicotinamide] was 302 to 304 °C; that for `CCNc1nc(-c2ccc(OC)cc2)c(-c2ccncc2)s1` [Reference Example 23-269, N-ethyl-[4-(4-methoxyphenyl)-5-(4-pyridyl)-1,3-thiazol-2-yl]amine] was 175 to 176 °C.
The value for `CCCNc1nc(-c2cc(C)cc(C)c2)c(-c2ccncc2)s1` [Reference Example 23-276, N-propyl-[4-(3,5-dimethylphenyl)-5-(4-pyridyl)-1,3-thiazol-2-yl]amine] was 177 to 180 °C.
With `CCCCNc1nc(-c2cc(C)cc(C)c2)c(-c2ccncc2)s1` [Reference Example 23-280, N-butyl-[4-(3,5-dimethylphenyl)-5-(4-pyridyl)-1,3-thiazol-2-yl]amine], the melting point lay in the range of 165 to 168 °C.
The value for `Cc1cc(C)cc(-c2nc(NCc3ccccc3)sc2-c2ccncc2)c1` [Reference Example 23-281, N-benzyl-[4-(3,5-dimethylphenyl)-5-(4-pyridyl)-1,3-thiazol-2-yl]amine] was 186 to 188 °C; that for `CCCNc1nc(-c2ccc(OC)cc2)c(-c2ccncc2)s1` [Reference Example 23-290, N-propyl-[4-(4-methoxyphenyl)-5-(4-pyridyl)-1,3-thiazol-2-yl]amine] was 141 to 142 °C.
The value for `COc1ccc(-c2nc(NC(C)C)sc2-c2ccncc2)cc1` [Reference Example 23-291, N-isopropyl-[4-(4-methoxyphenyl)-5-(4-pyridyl)-1,3-thiazol-2-yl]amine] was 161 to 163 °C; that for `COc1ccc(-c2nc(NC(=O)Nc3ccccc3)sc2-c2ccncc2)cc1` [Reference Example 23-296, N-[4-(4-methoxyphenyl)-5-(4-pyridyl)-1,3-thiazol-2-yl]-N′-phenylurea] was 217 to 219 °C; that for `COc1ccc(-c2nc(NC(=O)c3ccc(C(=O)O)cc3)sc2-c2ccncc2)cc1` [Reference Example 23-299, 4-[[[4-(4-methoxyphenyl)-5-(4-pyridyl)-1,3-thiazol-2-yl]amino]carbonyl]benzoic acid] was 332 to 335 °C.
The value for `COc1ccc(-c2nc(-c3ccc(SC)cc3)sc2-c2ccncc2)cc1` [Reference Example 23-300, methyl 4-[2-[4-(methylthio)phenyl]-5-(4-pyridyl)-1,3-thiazol-4-yl]phenyl ether] was 127 to 128 °C; that for `O=S(=O)(Cc1ccc(-c2nc(-c3ccc(F)cc3)c(-c3ccncc3)s2)cc1)Cc1ccc(-c2nc(-c3ccc(F)cc3)c(-c3ccncc3)s2)cc1` [Reference Example 23-313, 4-[4-(4-fluorophenyl)-5-(4-pyridyl)-1,3-thiazol-2-yl]phenylmethylsulfone] was 191 to 194 °C; that for `O=S(=O)(Cc1ccc(-c2nc(-c3ccc(Cl)cc3)c(-c3ccncc3)s2)cc1)Cc1ccc(-c2nc(-c3ccc(Cl)cc3)c(-c3ccncc3)s2)cc1` [Reference Example 23-314, 4-[4-(4-chlorophenyl)-5-(4-pyridyl)-1,3-thiazol-2-yl]phenylmethylsulfone] was 202 to 204 °C.
Compound `Cc1cc(C)cc(-c2nc(NC(=O)Nc3ccccc3)sc2-c2ccncc2)c1` [Reference Example 23-315, N-[4-(3,5-dimethylphenyl)-5-(4-pyridyl)-1,3-thiazol-2-yl]-N′-phenylurea] yielded a melting point of 167 to 169 °C.
The value for `COc1ccc(-c2nc(NC(=O)C(C)O)sc2-c2ccncc2)cc1` (stereo not drawn) [Reference Example 23-325, 2-hydroxy-N-[4-(4-methoxyphenyl)-5-(4-pyridyl)-1,3-thiazol-2-yl]propionamide] was 221 to 222 °C; that for `Cc1ccc(-c2nc(-c3ccc(CSCc4ccc(-c5nc(-c6ccc(C)c(C)c6)c(-c6ccncc6)s5)cc4)cc3)sc2-c2ccncc2)cc1C` [Reference Example 23-326, 4-[4-(3,4-dimethylphenyl)-5-(4-pyridyl)-1,3-thiazol-2-yl]phenylmethylsulfide] was 159 to 161 °C.
`Cc1ccc(-c2nc(-c3ccc(C[S+]([O-])Cc4ccc(-c5nc(-c6ccc(C)c(C)c6)c(-c6ccncc6)s5)cc4)cc3)sc2-c2ccncc2)cc1C` [Reference Example 23-327, 4-[4-(3,4-dimethylphenyl)-5-(4-pyridyl)-1,3-thiazol-2-yl]phenylmethylsulfoxide] came in with a melting point of 161 to 164 °C.
The value for `Cc1ccc(-c2nc(-c3ccc(CS(=O)(=O)Cc4ccc(-c5nc(-c6ccc(C)c(C)c6)c(-c6ccncc6)s5)cc4)cc3)sc2-c2ccncc2)cc1C` [Reference Example 23-328, 4-[4-(3,4-dimethylphenyl)-5-(4-pyridyl)-1,3-thiazol-2-yl]phenylmethylsulfone] was 194 to 196 °C; that for `COc1ccc(-c2nc(NC(=O)CO)sc2-c2ccncc2)cc1` [Reference Example 23-329, 2-hydroxy-N-[4-(4-methoxyphenyl)-5-(4-pyridyl)-1,3-thiazol-2-yl]acetamide] was 228 to 230 °C.
